In experiment [1] the test system is Langendorff-Herz; isolierte Aorta - Tracheen- und Fundus-Streifen; Kreislauf von Meerschweinchen und Hund. Put plainly: Battery of further pharmacological tests compared with PGF2α: Langendorff heart (coronary flow, heart rate, inotropy); isolated aorta, trachea and fundus strips; circulation of guinea pig and dog (blood pressure, heart rate). As to conditions: in all tests of the battery, compared with natural PGF2α. An excerpt:
In mehreren anderen Tests wurden (15R)- und (15S)-12-epi-PGF2ß sowie die beiden analogen erfindungsgemäßen 15-Mithylverbindungen mit dem bekannten PGF2α verßlichen. […] Die 15-Methyl-Derivate der 12-epi-PGF2β zeigen analoge Unterschiede der Wirkungsqualität der jeweiligen 15Rund l5S-Epimeren.

In experiment [2] the test system is isolierte Kaninchenaortastreifen. Put plainly: Contractile effect on isolated rabbit aorta strips, dose-response compared with PGF2α (method of J.R. Vane). As to conditions: isolated rabbit aorta strip. Details: species or system Kaninchen. An excerpt:
Zum Beispiel wurde die kontrahierende Wirkung von (15R)-12-epi-PGF2ß an einem isolierten Kaninchenaortastreifen mit der des natürlichen PGF2α verglichen. […] Die Wirkung dieser erfindungsgemäßen Verbindung setzt bei etwa 3-10^-6M/lein (vgl. Abb. 1). In dieser Konzentration ist das (15-S)-Epimere des 12 epi-PGF2ßunwirksam. [drawing]
Abb. 1 Kontraktile Wirkung von (15R)-12-epi-PGF2β (x) und PGF2α (.) auf isolierte Kaninchenaortastreifen in Abhängigkeit von der Dosis. (c = Konzentration; K = Kontraktionskraft) (Gemessen nach: J.R. Vane, Br.J. Pharmacol. Chemother. 23, 360-373 (1964)).

SMILES strings stand for the structures.

For the compound `CCCCC[C@@H](O)/C=C/[C@H]1[C@@H](C/C=C\CCCC(=O)O)[C@H](O)C[C@H]1O` [(15R)-12-epi-PGF2β, 15R-12-epi-PGF2β], the Wirkungsqualität entry in experiment [1] is recorded as “parallel zu den Wirkungen des natürlichen PGF2α”. Moreover, in experiment [2] (dose-response curve runs parallel to that of PGF2α), the “Wirkungsstärke (kontrahierende Wirkung) im Vergleich zu PGF2α” value was “ca. eine Zehnerpotenz niedrigeren Wirkungsstärke”. Further, the minimal effective concentration in experiment [2] (threshold concentration of the contractile effect (Abb. 1), read-out: Konzentration, bei der die kontrahierende Wirkung einsetzt) is approximately 3 µM.
As to `CCCCC[C@H](O)/C=C/[C@H]1[C@@H](C/C=C\CCCC(=O)O)[C@H](O)C[C@H]1O` [(15S)-12-epi-PGF2β, 12-epi-PGF2β], the Wirkungsqualität entry in experiment [1] is given as “PGE2-ähnliche Wirkung”. In addition, the “kontrahierende Wirkung” value in experiment [2] (at the concentration of about 3-10^-6M/l) is recorded as “unwirksam”.

These data come from patent publication EP0144459A1, “Prostaglandins, their preparation and pharmaceutical compositions” (Dr. Willmar Schwabe GmbH & Co., priority 1983, dated 1985).
